Assay results taken from US9688695B2, “Imidazothiadiazole and imidazopyrazine derivatives as protease activated receptor 4 (PAR4) inhibitors for treating platelet aggregation” (BRISTOL-MYERS SQUIBB COMPANY, priority 2012, dated 2017).

The molecules below were run against PAR4 (Homo sapiens (Human), UniProt Q96RI0) (assay: FLIPR assay in PAR4-expressing HEK293 cells (PAR4 antagonist activity, calcium mobilization)). Conditions: H-Ala-Phe(4-F)-Pro-Gly-Trp-Leu-Val-Lys-Asn-Gly-NH2-induced calcium mobilization.
Type: cell-based
Summary of the method: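 HEK293 EBNA cells stably expressing human PAR4 (also endogenous PAR1) preincubated 30 min at room temperature with compound in HBSS/10 mM HEPES, 0.67% DMSO final. PAR4 agonist peptide then added and intracellular calcium mobilization monitored by fluorescence.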

Sequence of PAR4 (Q96RI0 18-385): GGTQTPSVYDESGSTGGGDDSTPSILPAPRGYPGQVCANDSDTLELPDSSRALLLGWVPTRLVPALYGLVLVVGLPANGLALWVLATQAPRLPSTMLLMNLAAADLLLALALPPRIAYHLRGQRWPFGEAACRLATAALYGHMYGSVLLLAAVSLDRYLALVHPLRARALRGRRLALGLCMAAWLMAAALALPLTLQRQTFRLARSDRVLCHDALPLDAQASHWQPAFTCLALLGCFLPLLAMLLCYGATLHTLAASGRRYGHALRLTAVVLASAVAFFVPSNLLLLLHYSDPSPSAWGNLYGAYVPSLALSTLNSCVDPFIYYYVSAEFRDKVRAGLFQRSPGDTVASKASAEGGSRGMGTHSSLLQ

SMILES	EC50 [nM]
COc1cc(OCc2csc(N3CC[C@@H](O)C3)n2)c2cc(-c3cn4nc(C)ccc4n3)oc2c1 [Example 253]	9.7
COc1cc(OCc2csc(NC(C)C)n2)c2cc(-c3cn4nc(C)ccc4n3)oc2c1 [Example 255]	1.7
COc1cc(OCc2csc(N3CCSCC3)n2)c2cc(-c3cn4nc(C)ccc4n3)oc2c1 [Example 258]	0.81
COc1cc(OCc2csc(N3CCC(C)CC3)n2)c2cc(-c3cn4nc(C)ccc4n3)oc2c1 [Example 259]	0.58
COc1cc(OCc2csc(Nc3cccc(C#N)c3)n2)c2cc(-c3cn4nc(C)ccc4n3)oc2c1 [Example 260]	7
COc1cc(OCc2csc(N3CCN(c4ccccc4)CC3)n2)c2cc(-c3cn4nc(C)ccc4n3)oc2c1 [Example 262]	0.75
COc1cc(OCc2csc(N3CCN(c4ccccn4)CC3)n2)c2cc(-c3cn4nc(C)ccc4n3)oc2c1 [Example 263]	1.2
COc1cc(OCc2csc(Nc3cccc(C)c3)n2)c2cc(-c3cn4nc(C)ccc4n3)oc2c1 [Example 267]	4.2
COc1cc(OCc2csc(NCc3cccc(N(C)C)c3)n2)c2cc(-c3cn4nc(C)ccc4n3)oc2c1 [Example 269]	2.5
COc1cc(OCc2csc(N3CCN(Cc4cccnc4)CC3)n2)c2cc(-c3cn4nc(C)ccc4n3)oc2c1 [Example 270]	5.8
CCC1CCN(c2nc(COc3cc(OC)cc4oc(-c5cn6nc(C)ccc6n5)cc34)cs2)CC1 [Example 271]	1.3
COc1cc(OCc2csc(N3CCC(F)CC3)n2)c2cc(-c3cn4nc(C)ccc4n3)oc2c1 [Example 272]	2
COc1cc(OCc2csc(N3CCOC(C)C3)n2)c2cc(-c3cn4nc(C)ccc4n3)oc2c1 (centres unmarked) [Example 277]	1.1
COc1cc(OCc2csc(N3CCC4(CC3)CC4)n2)c2cc(-c3cn4nc(C)ccc4n3)oc2c1 [Example 278]	1.4
COc1cc(OCc2csc(N(C)C(C)C)n2)c2cc(-c3cn4nc(C)ccc4n3)oc2c1 [Example 280]	6.2
COc1cccc(Nc2nc(COc3cc(OC)cc4oc(-c5cn6nc(C)ccc6n5)cc34)cs2)c1 [Example 283]	2.9
COc1cc(OCc2csc(N3CCN(c4cccc(Cl)n4)CC3)n2)c2cc(-c3cn4nc(C)ccc4n3)oc2c1 [Example 284]	1.1
COc1cc(OCc2csc(N3CCN(C4CCOCC4)CC3)n2)c2cc(-c3cn4nc(C)ccc4n3)oc2c1 [Example 286]	110
CCN(C(=O)c1ccc(-c2nc(COc3cc(OC)cc4oc(-c5cn6nc(OC)sc6n5)cc34)cs2)cc1)C(C)C [Example 287]	0.48
COc1cc(OCc2csc(-c3ccc(C(=O)N4CCC4)cc3)n2)c2cc(-c3cn4nc(OC)sc4n3)oc2c1 [Example 289]	1.2
COc1cc(OCc2csc(-c3ccc(C(=O)N4CC(O)C4)cc3)n2)c2cc(-c3cn4nc(OC)sc4n3)oc2c1 [Example 290]	0.6
CCN(CCC#N)C(=O)c1ccc(-c2nc(COc3cc(OC)cc4oc(-c5cn6nc(OC)sc6n5)cc34)cs2)cc1 [Example 292]	0.27

SMILES	EC50 [nM]
COc1cc(OCc2csc(-c3ccc(C(=O)NCCO)cc3)n2)c2cc(-c3cn4nc(OC)sc4n3)oc2c1 [Example 293]	0.72
COc1cc(OCc2csc(-c3ccc(C(=O)N4CC(OC)C4)cc3)n2)c2cc(-c3cn4nc(OC)sc4n3)oc2c1 [Example 294]	0.4
COc1cc(OCc2csc(-c3ccc(C(=O)NC4COC4)cc3)n2)c2cc(-c3cn4nc(OC)sc4n3)oc2c1 [Example 295]	92
C=CCN(C)C(=O)c1ccc(-c2nc(COc3cc(OC)cc4oc(-c5cn6nc(OC)sc6n5)cc34)cs2)cc1 [Example 296]	2.2
COc1cc(OCc2csc(-c3ccc(C(=O)N(C)C(C)(C)C)cc3)n2)c2cc(-c3cn4nc(OC)sc4n3)oc2c1 [Example 297]	0.52
COc1cc(OCc2csc(-c3ccc(C(=O)N(C)C4COC4)cc3)n2)c2cc(-c3cn4nc(OC)sc4n3)oc2c1 [Example 298]	0.99
CCN(C(=O)c1ccc(-c2nc(COc3cc(OC)cc4oc(-c5cn6nc(OC)sc6n5)cc34)cs2)cc1)C1CC1 [Example 299]	0.55
COc1cc(OCc2csc(-c3ccc(C(=O)N(C)CCO)cc3)n2)c2cc(-c3cn4nc(OC)sc4n3)oc2c1 [Example 300]	0.42
COc1cc(OCc2csc(-c3ccc(C(=O)N4CCC(C)CC4)cc3)n2)c2cc(-c3cn4nc(OC)sc4n3)oc2c1 [Example 302]	0.44
COc1cc(OCc2csc(-c3ccc(C(=O)N4CCCCCC4)cc3)n2)c2cc(-c3cn4nc(OC)sc4n3)oc2c1 [Example 303]	0.85
COc1cc(OCc2csc(-c3ccc(C(=O)NC(C)C)cc3)n2)c2cc(-c3cn4nc(OC)sc4n3)oc2c1 [Example 304]	0.88
CCNC(=O)c1ccc(-c2nc(COc3cc(OC)cc4oc(-c5cn6nc(OC)sc6n5)cc34)cs2)cc1 [Example 306]	1.2
COc1cc(OCc2csc(-c3ccc(C(=O)NCCN(C)C)cc3)n2)c2cc(-c3cn4nc(OC)sc4n3)oc2c1 [Example 307]	24
CCN(C)C(=O)c1ccc(-c2nc(COc3cc(OC)cc4oc(-c5cn6nc(OC)sc6n5)cc34)cs2)cc1 [Example 308]	0.64
CCCN(CC)C(=O)c1ccc(-c2nc(COc3cc(OC)cc4oc(-c5cn6nc(OC)sc6n5)cc34)cs2)cc1 [Example 309]	0.54
COc1cc(OCc2csc(-c3ccc(C(=O)N(C)C(C)C)cc3)n2)c2cc(-c3cn4nc(OC)sc4n3)oc2c1 [Example 310]	0.53
CCN(CC1CC1)C(=O)c1ccc(-c2nc(COc3cc(OC)cc4oc(-c5cn6nc(OC)sc6n5)cc34)cs2)cc1 [Example 312]	0.77
CCCN(C(=O)c1ccc(-c2nc(COc3cc(OC)cc4oc(-c5cn6nc(OC)sc6n5)cc34)cs2)cc1)C(C)C1CC1 (centres unmarked) [Example 313]	0.43
COc1cc(OCc2csc(-c3ccc(C(=O)N(C)CC4CC4)cc3)n2)c2cc(-c3cn4nc(OC)sc4n3)oc2c1 [Example 314]	0.37
COc1cc(OCc2csc(-c3ccc(C(=O)NC4CC4)cc3)n2)c2cc(-c3cn4nc(OC)sc4n3)oc2c1 [Example 315]	1.3
COc1cc(OCc2csc(-c3ccc(C(=O)N(C4CC4)C4CC4)cc3)n2)c2cc(-c3cn4nc(OC)sc4n3)oc2c1 [Example 316]	0.95
COc1cc(OCc2csc(-c3ccc(C(=O)N4C(C)CCC4C)cc3)n2)c2cc(-c3cn4nc(OC)sc4n3)oc2c1 (centres unmarked) [Example 317]	1.6
